{"source": "patent US3959283A", "about": "“Amino-derivatives of 1,4-benzodioxan” (Laboratoire L. Lafon, priority 1974, dated 1976)", "key": {"adrenergic receptors [1]": {"system": "adrenergic receptors", "assay": "α-blocking activity, parenteral (LL 1756)", "assay_type": "in vivo"}, "dogs [2]": {"system": "dogs", "assay": "Intravenous perfusion in dogs anaesthetised with Nembutal (product of Example 8)", "assay_type": "in vivo", "conditions": "2.5 mg/kg i.v. over 5 minutes", "method": "(§1) During the series of pharmacological tests, the following parameters were used:\n(§2) Arterial pressure (abbreviated to AP): this parameter, expressed in mm Hg) is evaluated in accordance with the usual conditions.\nThe product of Example 8 was perfused intravenously over the course of 5 minutes at doses of 2.5 and 5 mg/kg."}, "adrenergic receptors [3]": {"system": "adrenergic receptors", "assay": "Reversal of hypertensive effect of adrenalin (α-blocking), product of Example 8", "assay_type": "in vivo", "conditions": "dogs"}, "[4]": {"system": "femoral and vertebral arteries", "assay": "Oral administration, arterial flow rates (product of Example 8)", "assay_type": "in vivo, dogs", "conditions": "orally"}, "man [5]": {"system": "man", "assay": "Administration to man in vascular complaints (product of Example 3)", "assay_type": "in vivo", "conditions": "tablets containing 20 mg, 2 to 3 per day"}, "adrenergic receptors [6]": {"system": "adrenergic receptors", "assay": "Reversal of hypertensive effect of adrenalin (α-blocking), product of Example 3", "assay_type": "in vivo, dogs"}, "dogs [7]": {"system": "dogs", "assay": "Cardiovascular properties of the product of Example 3 in dogs", "assay_type": "in vivo", "method": "as §2\nWhen administered intravenously to dogs at doses ranging from 1 mg to 13 mg/kg, the following results are observed:"}, "dogs [8]": {"system": "dogs", "assay": "Coronary flow rate and haemodynamics in anaesthetised dogs, intravenous perfusion", "assay_type": "in vivo", "method": "as §1, §2\nArterial resistance: this parameter (expressed in dynes/sec./cm^^-5) is calculated according to the ratio [formula]\nCardiac index: this parameter is expressed in ml/min./kg.\nSystolic index: this parameter is equal to the ratio cardiac index/frequency.\nCardiac work: this parameter (expressed in kgm/min.) is calculated according to the relationship: Cardiac work = average AP (mm Hg) × 1.36 = cardiac output (1/min.) × 10^^-3.\nRatio dp/dt: this parameter corresponds to the variation in pressure expressed in mm Hg per second (in English: Rate of rise of left ventricular pressure).\nThe technique used to measure the ratio dp/dt is as follows:\nThe cardiac output is determined in Beagle dogs weighing 10 to 15 kg, anesthetised with pentobarbital, by injecting Cardiogreen (1 mg in 0.5 ml) into the right ventricle. A catheter introduced via the carotid artery into the aorta makes it possible to aspirate arterial blood at the rate of 25 ml/min. and to pass it in front of the photoelectric cell of a Beckman cardiodensitometer. The results are interpreted in accordance with the Hamilton method."}, "[9]": {"system": "vertebral, femoral and mesenteric arteries", "assay": "Vasodilating properties, intravenous administration, arterial flow rates", "assay_type": "in vivo, dogs", "conditions": "for increase in vertebral flow rate: 0.25 mg/kg perfused i.v.", "method": "When administered intravenously, the following results were observed:\nA third test is carried out by injecting, without stopping, 0.5, 1, 2 and 4 mg/kg, that is to say a total of 7.5 mg/kg."}, "femoral artery": {"system": "femoral artery", "assay": "Vasodilating properties, injection into the femoral artery", "assay_type": "in vivo, dogs", "procedure": "On injection into the femoral artery, no effect is observed at doses of less than 100 μg/kg. […] At these doses, no effect is observed on the arterial pressure AP measured in accordance with the usual conditions."}, "adrenergic receptors [10]": {"system": "adrenergic receptors", "assay": "Effect on responses to adrenalin, acetylcholine, isoprenalin and vagus stimulation (product of Example 2)", "assay_type": "in vivo, dogs"}, "man [11]": {"system": "man", "assay": "Clinical studies in man, tablets or injectable ampoules (product of Example 2)", "assay_type": "in vivo", "conditions": "tablets (50 mg) or injectable ampoules (10 mg)", "text": "In clinical studies, good results were obtained in man by administering tablets such as: […]"}, "vertebral artery": {"system": "vertebral artery", "assay": "Vasodilating properties, injection into the vertebral artery", "assay_type": "in vivo, dogs", "procedure": "On injection into the vertebral artery, no effect is observed at doses of less than 1 mg/kg. At a dose of 10 mg/kg, the flow rate increases by 37% and at a dose of 20 mg/kg it only increases by 27%. At these two doses, the arterial pressure decreases respectively by 14 and 28% although no effect had been observed during the injection into the femoral artery."}, "adrenergic receptors [12]": {"system": "adrenergic receptors", "assay": "Oral α-blocking activity in dogs (hypertensive effects of adrenalin)", "assay_type": "in vivo", "conditions": "orally"}, "[13]": {"conditions": "another test, 2 mg/kg at the very start"}}, "note": "Structures can show the parent of a compound that is named as a salt."}
{"smiles": "OCCN1CCN(CC2COc3ccccc3O2)CC1", "note": "(stereo not shown) [Example 1, 1-[2-(1,4-Benzodioxanyl)-methyl]-4-(2-hydroxyethyl)-piperazine dihydrochloride]", "values": [{"measurement": "α-blocking activity", "setting": "adrenergic receptors [1]", "result": "α-blocking when administered parenterally"}]}
{"smiles": "c1cnc(N2CCN(CC3COc4ccccc4O3)CC2)nc1", "note": "(stereo not shown) [Example 8, 1-[2-(1,4-Benzodioxanyl)-methyl]-4-(2-pyrimidinyl)-piperazine dihydrochloride]", "values": [{"measurement": "decrease in the vertebral flow rate", "setting": "dogs [2]", "result": 19, "unit": "%"}, {"measurement": "effect on the mesenteric flow rate", "setting": "dogs [2]", "result": "practically no effect"}, {"measurement": "increase in the differential arterial pressure", "setting": "dogs [2]", "result": 50, "unit": "%"}, {"measurement": "femoral vasodilating effect", "setting": "dogs [2]; increase", "result": 19, "unit": "%"}, {"measurement": "tachycardia", "setting": "dogs [2]; increase", "result": 19, "unit": "%"}, {"measurement": "hypertensive effect of adrenalin", "setting": "adrenergic receptors [3]", "result": "the hypertensive effect of adrenalin is reversed, and this manifests itself in an α-blocking action"}, {"measurement": "passage into the general circulation", "setting": "[4]; 10 mg/kg", "result": "passes into the general circulation"}, {"measurement": "rise in femoral flow rate", "setting": "[4]; 1 to 10 mg/kg, for 30 minutes", "result": 200, "unit": "%"}, {"measurement": "rise in vertebral flow rate", "setting": "[4]; 1 to 10 mg/kg, for 30 minutes", "result": 60, "unit": "%"}, {"measurement": "flow rate of the femoral artery", "setting": "[4]; doses less than 100 μg/kg", "result": "does not alter"}, {"measurement": "flow rate of the vertebral artery", "setting": "[4]; doses less than 100 μg/kg", "result": "does not alter"}]}
{"smiles": "OCC(O)CN1CCN(CC2COc3ccccc3O2)CC1", "note": "(stereo not shown) [Example 3, 1-[2-(1,4-Benzodioxanyl)-methyl]-4-(2,3-dihydroxypropyl)-piperazine dihydrochloride]", "values": [{"measurement": "result in vascular complaints", "setting": "man [5]", "result": "good results in vascular complaints"}, {"measurement": "α-blocking action (conclusion)", "setting": "adrenergic receptors [6]; conclusion", "result": "α-blocking agent"}, {"measurement": "hypertensive effect of adrenalin", "setting": "adrenergic receptors [6]; intraduodenal, 10 mg/kg", "result": "reversal of the hypertensive effect of adrenalin"}, {"measurement": "effect on the AP", "setting": "dogs [7]; i.v., 1 mg to 13 mg/kg", "result": "little effect on the AP or a slight hypotension"}, {"measurement": "vertebral flow rate", "setting": "dogs [7]; i.v., 1 mg to 13 mg/kg", "result": "no effect"}, {"measurement": "cardiovascular variations after intraduodenal administration", "setting": "dogs [7]; intraduodenal, 10 and 50 mg/kg", "result": "the variations described after intravenous injection are found again"}]}
{"smiles": "OCCN1CCN(CC2COc3ccccc3O2)CC1", "note": "(stereo not shown) [Example 2, 1-[2-(1,4-Benzodioxanyl)-methyl]-4-(2-hydroxyethyl)-piperazine hemifumarate]", "values": [{"measurement": "increase in coronary flow rate", "setting": "dogs [8]; 5 mg/kg i.v., 2 hours after the injection", "result": 75, "unit": "%"}, {"measurement": "increase in coronary flow rate, maximum effect", "setting": "dogs [8]; 5 mg/kg i.v., after 1 hour", "result": 200, "unit": "%"}, {"measurement": "increase in maximum intraventricular pressure", "setting": "dogs [8]; 5 mg/kg i.v., for 1 hour", "result": 56, "unit": "%"}, {"measurement": "increase in the differential arterial pressure", "setting": "dogs [8]; 5 mg/kg i.v., for 1 hour", "result": 40, "unit": "%"}, {"measurement": "increase in ratio dp/dt", "setting": "dogs [8]; 5 mg/kg i.v., for more than 1 hour", "result": 180, "unit": "%"}, {"measurement": "tachycardia", "setting": "dogs [8]; 5 mg/kg i.v., increase", "result": 40, "unit": "%"}, {"measurement": "effect on arterial pressure (summary)", "setting": "dogs [8]; at a higher dose", "result": "at a higher dose, it is hypotensive"}, {"measurement": "tachycardiac properties (summary)", "setting": "dogs [8]; at low doses", "result": "possesses tachycardiac properties at low doses"}, {"measurement": "cardiac work and coronary irrigation (summary)", "setting": "dogs [8]; summary", "result": "increases the cardiac work and, in parallel fashion, it increases the coronary irrigation"}, {"measurement": "duration of increase in vertebral flow rate", "setting": "[9]; [13]", "result": "more than one hour"}, {"measurement": "flow rate of the femoral artery", "setting": "[9]; [13]", "result": "only increased greatly during the injection"}, {"measurement": "increase in flow rate of the vertebral artery", "setting": "[9]; [13]", "result": 87, "unit": "%"}, {"measurement": "increase in vertebral flow rate", "setting": "[9]; first test, end of perfusion", "result": 14, "unit": "%"}, {"measurement": "increase in vertebral flow rate", "setting": "[9]; first test, start of perfusion", "result": 90, "unit": "%"}, {"measurement": "effect of additional injections on the flow rate", "setting": "[9]; first test, additional 0.5 and 5 mg/kg", "result": "no effect on the flow rate"}, {"measurement": "effect of subsequent injections on the flow rate", "setting": "[9]; second test, subsequent 1 and 2 mg/kg", "result": "no effect on the flow rate"}, {"measurement": "vasodilating action (summary)", "setting": "[9]; summary", "result": "can dilate either the vertebral artery or the femoral artery or both"}, {"measurement": "femoral flow rate", "setting": "[9]; third test, 0.5, 1, 2 and 4 mg/kg i.v. without stopping", "result": "increased very much by the first injection, decreases during the subsequent injections"}, {"measurement": "effect on arterial pressure AP", "setting": "femoral artery; injection into femoral artery, 1, 10 and 20 mg/kg", "result": "no effect"}, {"measurement": "effect on flow rate of the femoral artery", "setting": "femoral artery; injection into femoral artery, doses less than 100 μg/kg", "result": "no effect"}, {"measurement": "effect of the stimulation of the peripheral vagus", "setting": "adrenergic receptors [10]; dogs", "result": "does not alter"}, {"measurement": "effects of the injection of acetylcholine", "setting": "adrenergic receptors [10]; dogs", "result": "does not alter"}, {"measurement": "effects of the injection of isoprenalin", "setting": "adrenergic receptors [10]; dogs", "result": "does not alter"}, {"measurement": "α-lytic action (summary)", "setting": "adrenergic receptors [10]; summary", "result": "acts as an α-lytic product"}, {"measurement": "clinical result", "setting": "man [11]", "result": "good results"}, {"measurement": "increase in flow rate", "setting": "vertebral artery; 10 mg/kg", "result": 37, "unit": "%"}, {"measurement": "increase in flow rate", "setting": "vertebral artery; 20 mg/kg", "result": 27, "unit": "%"}, {"measurement": "effect on vertebral flow rate", "setting": "vertebral artery; doses less than 1 mg/kg", "result": "no effect"}, {"measurement": "hypertensive effects of adrenalin", "setting": "adrenergic receptors [12]; 5 mg/kg", "result": "decreases the said effects"}, {"measurement": "hypertensive effects of adrenalin", "setting": "adrenergic receptors [12]; 7 mg/kg", "result": "inhibits them strongly"}, {"measurement": "α + effect of adrenalin", "setting": "adrenergic receptors [12]; 10 mg/kg", "result": "overcomes the α + effect of adrenalin"}]}
